Holding throughout (assay): In vitro competitive binding assay with biotinylated vitronectin
Assay [1] addresses αvβ5 integrin (Homo sapiens, UniProt P06756+P18084). As to conditions: competitor biotinylated vitronectin 1 μg/mL, read-out: IC50 (vitronectine IC50). How it is done:
(§1) The affinity of DA364 for its specific targeted (the integrin αvβ3) and its crossreactivity for other integrins (e.g. αvβ1, αvβ5) was assessed by in vitro binding tests.
(§2) A 96-well microtiter plate (MediSorp, Nunc) was coated overnight at 4° C., with tested integrins (0.5 μg/mL, diluted in coating/washing buffer (20 mM Tris HCl pH 7.4; 150 mM NaCl; 1 mM MnCl2; 0.5 mM MgCl2; 2 mM CaCl2). After coating, the plate is rinsed with washing buffer and then incubated in blocking buffer (3% BSA in coating buffer) for 2 h at room temperature (RT) (24° C. in Thermomixer, under shaking). The plate was then rinsed in washing buffer and incubated at RT for 3 h with DA364 (concentration range from 5000 to 0.005 nM). DA364 solutions were prepared by serially diluting a stock solution of the NIR agent in 1% BSA in coating buffer in presence of biotinylated vitronectin (1 μg/mL, cod. HVN-U605, Molecular Innovations). The plate is then rinsed again and incubated with Streptavidin-HRP (cod.EG RPN 1051, GE Healthcare) (1:10000 in PBS) 1 h at RT, binding the biotinylated vitronectin. After additional washes in PBS, the plate was incubated with TMB solution (3,3′,5,5′-tetramethylbenzidine) (cod.T-0440, Sigma-Aldrich) for 5-10 min and the colorimetric reaction was then stopped by addition of 2 N sulfuric acid. The quantification of the IC50 for DA364 was performed by measuring the competitor (biotinylated vitronectin) by reading the absorbance at 450 nm. IC50 values were determined by least-square non-linear regression analysis.

The target in assay [2] is αvβ3 integrin (Homo sapiens, UniProt P05106+P06756). As to conditions: competitor biotinylated vitronectin 1 μg/mL, average value from a triplicate test, read-out: IC50 (vitronectine IC50). How it is done:
as §1, §2

In assay [3] the target is αvβ1 integrin (Homo sapiens, UniProt P05556+P06756). The note with it: competitor biotinylated vitronectin 1 μg/mL, read-out: IC50 (vitronectine IC50). How it is done: as §1, §2

As a reminder, the IC50 is the concentration at which inhibition is half-maximal. `CC[N+]1=C(/C=C/C=C/C=C2/N(CCCCCC(=O)NC[C@@H]3C[C@@H]4CC[C@H]5C(=O)N[C@@H](CCCNC(=N)N)C(=O)NCC(=O)N[C@@H](CC(=O)O)C(=O)N[C@H]3C(=O)N45)c3ccc4c(S(=O)(=O)O)cc(S(=O)(=O)O)cc4c3C2(C)C)C(C)(C)c2c1ccc1c(S(=O)(=O)[O-])cc(S(=O)(=O)O)cc21` [DA364]: the IC50 in assay [1] was 0.281 µM; in assay [2], 0.00376 µM; in assay [3], 0.028 µM.

Values taken from patent US10682427B2, “Intra-operative imaging” (BRACCO IMAGING S.P.A., priority 2014, dated 2020).
